Reference: patent publication US20250092086A1, “CELASTROL SALTS, CRYSTALLINE FORMS, AND USES THEREOF” (ERX Pharmaceuticals Inc., priority 2022, published 2025)
Values after ≈ are worked out from the molar mass of the structure shown. “Also recorded” adds a separate entry of the source. Where two headings read alike, the source gives them in different places.

Columns and labels:
Type in all cases: physicochemical
[1] = XRPD under temperature and relative humidity; conditions: for XRPD under temperature: impact / new crystalline phase: 25 to 100° C., RH set at 30%; for XRPD under relative humidity: impact / new crystalline phase: RH 10 to 80-90% at 40° C.; for Physical stability under the conditions tested (temperature and RH): XRPD, 25-100° C. and 10-90% RH at 40° C.
Description: Method 1: influence of temperature at ambient RH. RH was set at 30% in order to simulate a RH near from the ambient RH, and the temperature studied were 25-[…]-100° C.
Method 2: influence on RH at 40° C. The RH studied was at 10-30-80%.
These experiments studied the influence of temperature at ambient RH. RH was wet at 30% in order to simulate a RH near from the ambient RH, and the temperatures studied were 25-50-100° C.
These experiments studied the influence on RH at 40° C. The RH studied were 10-30-88%.
Using Method 1, the influence of temperature at ambient RH was studied. RH was set at 30% in order to simulate a RH near from the ambient RH, and the temperatures studied were 25-50-100° C. FIG. 24 provides the XRPD pattern representing the influence of temperature on Compound 1 Form I.
Using Method 2, the influence on RH at 40° C. was studied. The RH studied were 10-30-90%.
Using Method 1, the influence of temperature at ambient RH was studied. RH was set at 30% in order to simulate a RH near from the ambient RH. Temperature studied: 25-50-100° C.
Using Method 2, the influence on RH at 40° C. was studied at 10-30-90%.

[2] = Solubility in water at 37° C.
Source text: This compound can be considered as very slightly soluble (<1 g/L).

[3] = Hygroscopicity (DVS), water sorption/desorption at 37° C.; conditions: for DVS (hygroscopicity): water sorption/desorption isotherms at 37° C., 0-95% RH
Description: The hygroscopicity experiments were carried out with a DVS Intrinsic from S.M.S. This technique is designed to accurately measure a sample's change in mass as it sorbs precisely controlled concentrations of water vapors in an air carrier gas. The method used for DVS experiments (at 37° C.) is summarized below. • Equilibrating 10 min at 50% RH • Decreasing to 0% RH in 60 min • Equilibrating 10 min at 0% RH • Increasing to 95% RH in 280 min • Equilibrating 10 min at 95% RH • Decreasing to 50% RH in 100 min • Equilibrating 20 min at 50% RH
The hygroscopic experiments were carried out with a DVS Intrinsic from S.M.S. This technique is designed to accurately measure a sample's change in mass as it sorbs precisely controlled concentrations of water vapors in an air carrier gas. All the methods used for DVS experiments are summarized below. It should be noticed that the temperature and relative humidity (RH) are pre-set according to the initial temperature and RH.
• Equilibrating 120 min at 50% RH • Decreasing to 0% RH in 60 min • Equilibrating 150 min at 0% RH • Increasing to 95% RH in 200 min • Equilibrating 360 min at 95% RH • Decreasing to 50% RH in 100 min • Equilibrating 150 min at 50% RH
The hygroscopicity experiments were carried out with a DVS Intrinsic from S.M.S. This technique is designed to accurately measure a sample's change in mass as it sorbs precisely controlled concentrations of water vapors in an air carrier gas. All the methods used for DVS experiments are summarized below, and it should be noticed that the temperature and relative humidity (RH) are pre-set according to the initial temperature and RH.
The hygroscopicity experiments were carried out with a DVS Intrinsic from S.M.S. This technique is designed to accurately measure a sample's change in mass as it sorbs precisely controlled concentrations of water vapors in an air carrier gas. All the methods used for DVS experiments are summarized below. It should be noticed that the temperature and relative humidity (RH) are pre-set according to the initial temperature and RH.

[4] = Solubility study of Compound I Form I in various solvents and temperatures
Description: The solubility of Compound 1 Form I was assessed in order to identify potential crystallization media. Compound 1 Form I was found very soluble in dichoromethane even at low temperature (10° C.).

With `CC1=C(O)C(=O)C=C2C1=CC=C1[C@@]2(C)CC[C@@]2(C)[C@@H]3C[C@](C)(C(=O)O)CC[C@]3(C)CC[C@]12C` [Compound 2] the “XRPD under temperature: impact / new crystalline phase” value [1] was “No impact of temperature”, the “XRPD under temperature: impact / new crystalline phase” value ([1]; listed as Trometamol salt) was “=>No new crystalline phase until 100 °C” and the “XRPD under relative humidity: impact / new crystalline phase” value [1] was “formation of a new crystalline pattern”. For the same molecule, the “XRPD under relative humidity: impact / new crystalline phase” value ([1]; listed as Trometamol salt) was “less stable physically under relative humidity; also recorded: =>New crystaline phase from 80% RH”, the “Solubility in water at 37° C.” value [2] was less than 1.5 mg/mL and the “Solubility in water at 37° C.” value ([2]; listed as Trometamol salt) was “(s < 1.5 g/L)”. The “Hysteresis with the final mass at 50% RH” value ([3]; DVS, 37° C.) was roughly 3 % w/w, the “Mass decrease as the RH was lowered to 0%” value ([3]; DVS, 37° C.) was roughly 3.8 % w/w and the “Mass increase as the RH was increased to 95%” value ([3]; DVS, 37° C.) was 11 % w/w. For the same molecule, the “Water uptake, water sorption/desorption isotherms” value ([3]; DVS, 37° C.) was 2 ˜15 % w/w, the “DVS (hygroscopicity)” value [3] was “hygropscopic” and the “DVS (hygroscopicity)” value ([3]; listed as Trometamol salt) was “Hygroscopic”.

For `CC1=C(O)C(=O)C=C2C1=CC=C1[C@@]2(C)CC[C@@]2(C)[C@@H]3C[C@](C)(C(=O)O)CC[C@]3(C)CC[C@]12C` [Compound 1 Form I, 3-hydroxy-9β,13α-dimethyl-2-oxo-24,25,26-trinoroleana-1(10),3,5,7-tetraen-29-oic acid], the “XRPD under temperature: impact / new crystalline phase” value [1] was “No impact”, the “XRPD under temperature: impact / new crystalline phase” value ([1]; listed as Compound I Form I) was “no new crystalline phase until 100 °C” and the “XRPD under temperature: impact / new crystalline phase” value ([1]; listed as FI) was “=>No new crystalline”. The “XRPD under relative humidity: impact / new crystalline phase” value [1] was “No impact”, the “XRPD under relative humidity: impact / new crystalline phase” value ([1]; listed as Compound I Form I) was “no new crystalline phase from 10 to 90% RH” and the “XRPD under relative humidity: impact / new crystalline phase” value ([1]; listed as FI) was “=>No new crystalline”. For the same molecule, the “Physical stability under the conditions tested (temperature and RH)” value [1] was “good stability”, the “Hysteresis observed with the final mass at 50% RH” value ([3]; DVS, 37° C.) was “No hysteresis; also recorded: slight hysteresis” and the “Water uptake, water sorption/desorption isotherms” value ([3]; DVS, 37° C.) was less than 0.2 % w/w. For the same molecule, the “DVS (hygroscopicity)” value [3] was “non hygroscopic; also recorded: non-hygroscopic”, the “DVS (hygroscopicity)” value ([3]; listed as Compound I Form I) was “Non-hygroscopic” and the “DVS (hygroscopicity)” value ([3]; listed as FI) was “Not hygroscopic”. The solubility ([4]; CH2Cl2/EtOH 20/80, organic solvent or mixture, CH2Cl2-2/EtOH 20/80, 40° C.) was 31 to 40 mg/mL (≈ 68.8 to 88.8 mM), the solubility ([4]; aqueous with cosolvent or surfactant or cyclodextrin, MeOH/Water 67/33/V, 10° C.) was less than 2 mg/mL and the solubility ([4]; aqueous with cosolvent or surfactant or cyclodextrin, Water/EtOH 50/50, 10° C.) was less than 11 mg/mL. For the same molecule, the solubility ([4]; aqueous with cosolvent or surfactant or cyclodextrin, Water/EtOH 50/50, 25° C.) was less than 11 mg/mL, the “Solubility in dichoromethane” value ([4]; dichoromethane, even at low temperature (10° C.)) was “very soluble” and the “Solubility in dichoromethane/ethanol 50:50 (V/V) at high temperature” value ([4]; dichoromethane/ethanol 50:50 (V/V), high temperature) was “relatively good solubility”. For the same molecule, the “Solubility in dichoromethane/ethanol 50:50 (V/V) at low temperature” value ([4]; dichoromethane/ethanol 50:50 (V/V), low temperature) was “low solubility”, the solubility ([4]; methanol, organic solvent or mixture, MeOH, 10° C.) was 8 to 11 mg/mL (≈ 17.8 to 24.4 mM) and the solubility ([4]; methanol, organic solvent or mixture, MeOH, 50° C.) was roughly 36 mg/mL (≈ 79.9 mM). It also gave a solubility ([4]; organic solvent or mixture, CH2Cl2, 25° C.) greater than 120 mg/mL, a solubility ([4]; organic solvent or mixture, CH2Cl2/EtOH 10/90, 10° C.) of 11 to 15 mg/mL (≈ 24.4 to 33.3 mM) and a solubility ([4]; organic solvent or mixture, CH2Cl2/EtOH 10/90, 40° C.) of less than 25 mg/mL. The solubility ([4]; organic solvent or mixture, CH2Cl2/EtOH 30/70, 10° C.) was 25 to 45 mg/mL (≈ 55.5 to 99.9 mM), the solubility ([4]; organic solvent or mixture, CH2Cl2/EtOH 50/50, 10° C.) was greater than 40 mg/mL and the solubility ([4]; organic solvent or mixture, CH2Cl2/EtOH 70/30, 10° C.) was greater than 40 mg/mL. For the same molecule, the solubility ([4]; organic solvent or mixture, CH2Cl2/EtOH 90/10, 10° C.) was greater than 40 mg/mL, the solubility ([4]; organic solvent or mixture, Ethanol, 25° C.) was 9 to 14 mg/mL (≈ 20 to 31.1 mM) and the solubility ([4]; organic solvent or mixture, Ethyl acetate, 10° C.) was 20 to 40 mg/mL (≈ 44.4 to 88.8 mM). For the same molecule, the solubility ([4]; organic solvent or mixture, Propan-2-ol, 10° C.) was less than 25 mg/mL and the solubility ([4]; organic solvent or mixture, Propan-2-ol, 50° C.) was 25 to 40 mg/mL (≈ 55.5 to 88.8 mM).

In the case of `CC1=C(O)C(=O)C=C2C1=CC=C1[C@@]2(C)CC[C@@]2(C)[C@@H]3C[C@](C)(C(=O)O)CC[C@]3(C)CC[C@]12C` [Compound 1 Form II, 3-hydroxy-9β,13α-dimethyl-2-oxo-24,25,26-trinoroleana-1(10),3,5,7-tetraen-29-oic acid], the “XRPD under temperature: impact / new crystalline phase” value [1] is reported as “No impact”, the “XRPD under temperature: impact / new crystalline phase” value ([1]; listed as FII) is reported as “=>No new crystalline” and the “XRPD under relative humidity: impact / new crystalline phase” value [1] is reported as “No impact”. The “XRPD under relative humidity: impact / new crystalline phase” value ([1]; listed as FII) was “=>No new crystalline”, the “Physical stability under the conditions tested (temperature and RH)” value [1] was “good stability” and the “Hysteresis observed with the final mass at 50% RH” value ([3]; DVS, 37° C.) was “No hysteresis”. The “Mass decrease as the RH was lowered to 0%” value ([3]; DVS, 37° C.) was roughly 0.08 % w/w, the “Mass increase as the RH was increased to 95%” value ([3]; DVS, 37° C.) was “about 0.13 % w/w” and the “Water uptake, water sorption/desorption isotherms” value ([3]; DVS, 37° C.) was less than 0.2 % w/w. For the same molecule, the “DVS (hygroscopicity)” value [3] was “non-hygroscopic” and the “DVS (hygroscopicity)” value ([3]; listed as FII) was “Not hygroscopic”.
